The record followed here is patent EP0329348B1, “2',3'-Dideoxy-2',2'-difluoronucleosides” (ELI LILLY AND COMPANY, priority 1988, dated 1989).

Common to all, as to assay type: cell-based
In assay [1] the test system is human leukemic cells (CCRF-CEM cell line). Description: Cytotoxicity screen: growth inhibition of human leukemic cells. The settings on record: read-out: IC₅₀ (concentration giving 50% growth inhibition). The source says:
See, e.g., Miller et al., in J. Med. Chem. Vol. 20, No. 3 409 (1977) and Sweeney, et al., in Cancer Research 38, 2886 (1978).
The compounds of the present invention represented by Formula I are cytostatic in that they inhibit the growth of human leukemic cells (CCRF-CEM cell line). Table 1 below gives the results of such testing of compounds representative of those in Formula I. In the Table, column 1 gives the example number of the compound and column 2 the IC₅₀ (concentration giving 50% growth inhibition) in mcg/ml.

Another assay deals with HSV-1. Description: Plaque-reduction study against HSV-1. The settings on record: HSV-1 plaque reduction. The protocol: (§1) The following plaque-reduction study provides a quantitative evaluation of inhibitors of virus multiplication and establishes the antiviral activity of a representative compound of the present invention. According to this study, susceptible cells (BSC-1, Hela, MDCK, etc.) were grown in 25 cm² Falcon flasks at 37°C in Medium 199 with 5 percent inactivated fetal bovine serum (FBS), penicillin (150 units/ml) and streptomycin (150 »g/ml). When confluent monolayers were formed, the growth medium was removed and 0.3 ml of an appropriate dilution of the virus was added to each flask. After adsorption for one hour at room temperature, the infected cell sheet was overlaid with equal parts of 1 percent Agarose and 2x Medium 199, 2.5 percent FBS, penicillin, and streptomycin. The compound to be tested was dissolved in dimethyl sulfoxide (DMSO) at a concentration of 10,000 »g/ml and an aliquot of the resulting solution was diluted to the desired concentration with the agar medium mixture. Flasks were incubated at 37°C until control flasks indicated optimum plaque size of about 2 to about 10 mm. A solution containing 10 percent formalin by volume and 2 percent sodium acetate by volume was added to each flask to inactivate the virus and fix the cell sheet to the plastic surface. The plaques were counted after staining the surrounding cell areas with crystal violet. Results from duplicate flasks at each concentration were averaged and compared with control flasks. The following degrees of inhibition against HSV-1 were observed.

For a further assay, the system named is Friends leukemia virus. Description: CPE inhibition in SC-1 cells infected with murine leukemia virus, XC cell overlay. The conditions noted are these: SC1, 120 h, SC-1 cells from a feral mouse, XC cells added after 5 days, read-out: IC₅₀. The protocol: The following procedure was used to establish the efficacy of a representative compound of the present invention against Friends leukemia virus. SC-1 cells from a feral mouse were seeded subconfluently at 2-5 x 10³ cells per well in 96 microwell plates with complete MEM media plus 2 mcg/ml polybrene overnight at 37°C under a carbon dioxide atmosphere. The medium was removed. The cultures were infected with a proper dilution of murine leukemia virus (50 mcl/well) and were allowed to adsorb for about two hours at room temperature. After adsorption, the virus containing medium was removed and replaced with fresh complete MEM, both with and without dilutions of the compound of Example 1, and reincubated at 37°C under carbon dioxide for 5 days or until the cells reached confluence. The medium was removed and the cells were exposed for 10 seconds to a UV germicidal light. XC cells from a Rous sarcoma virus induced rat tumor cell line at a concentration of 5-8 x 10⁴ cells/well were added to the irradiated SC-1 monolayers. The cultures were incubated at 37°C under carbon dioxide for three days until CPE occurred in the control wells. Cultures were fixed with formalin and stained with crystal violet. The results were scored as CPE inhibition.

Another assay concerns HSV-2. Description: Plaque-reduction study against HSV-2. The conditions noted are these: HSV-2 plaque reduction. As for the experimental part: as §1, with “Results from duplicate flasks at each concentration were averaged and compared with control flasks. The following degrees of inhibition against HSV-1 were observed.” left out

≈ marks a conversion by molar mass, not a printed value.

Broadly, the inhibition is the change of the read-out against control, counted positive when it falls. Low readings indicate a response near the control, high ones a response far below the control. Regarding `Nc1ccn([C@@H]2O[C@H](CO)CC2(F)F)c(=O)n1` [Example 1, β-1-(4-Amino-2-oxo-1H-pyrimidin-1-yl)-2,3-dideoxy-2,2-difluororibose], the IC50 in assay [1] stood at 1.9 µg/mL (≈ 7.69 µM); in the assay with Friends leukemia virus, 6.5 µg/mL (≈ 26.3 µM). This compound also yielded an inhibition at 15 µg/mL in the assay on HSV-1 (Human alphaherpesvirus 1, concentration 15 ug/ml) of 50%.

A word on the Inhibition: it is the drop in the measured response relative to a control, in per cent. As for `Nc1nc(N)c2ncn([C@@H]3O[C@H](CO)CC3(F)F)c2n1` [Example 2, β-1-(2,6-diamino-9H-purin-9-yl)-2,3-dideoxy-2,2-difluororibose], the IC50 in assay [1] came out at 1.9 µg/mL (≈ 6.64 µM). In the assay with HSV-1 (concentration 3.1 (unit ug/ml)), this compound showed an Inhibition of 27%.

With `Nc1nc2c(ncn2[C@@H]2O[C@H](CO)CC2(F)F)c(=O)[nH]1` [Example 3, β-1-(2-amino-6-oxo-9H-purin-9-yl)-2,3-dideoxy-2,2-difluororibose], the IC50 in assay [1] is 8.5 µg/mL (≈ 29.6 µM). The compound further displayed an inhibition at 25 µg/mL in the assay on HSV-2 (Human alphaherpesvirus 2, concentration 25 ug/ml) of 21%.

Regarding `Cc1cn([C@@H]2O[C@H](CO)[C@@H](N=[N+]=[N-])C2(F)F)c(=O)[nH]c1=O` [Example 4, β-1-(5-methyl-2,4-dioxo-1H,3H-pyrimidin-1-yl)-3-azido-2,3-dideoxy-2,2-difluororibose], the IC50 in assay [1] stood at 23.4 µg/mL (≈ 77.2 µM). For the same compound, the Inhibition with HSV-1 (concentration 25 (unit ug/ml)) is reported as 39%; in the assay on HSV-2 (concentration 13.5 (unit ug/ml)), 50%.

As to `Cc1cn([C@@H]2O[C@H](CO)CC2(F)F)c(=O)[nH]c1=O` [Example 5, β-1-(5-methyl-2,4-dioxo-1H,3H-pyrimidin-1-yl)-2,3-dideoxy-2,2-difluororibose], in assay [1], the IC50 was more than 20 µg/mL. In the assay with HSV-1 (concentration 25 (unit ug/ml)), the Inhibition was found to be 35%.
